84 compounds from the RepoRT retention time repository can be followed below.

The series is described as follows: HILIC, Waters ACQUITY UPLC BEH Amide, 100 × 2.1 mm, 1.7 µm; A: water + 0.125% formic acid + 10 mM ammonium formate; B: 5% water + 95% acetonitrile + 0.125% formic acid + 10 mM ammonium formate; gradient (min/%B) 0/100 2/100 7.7/70 9.5/40 10.25/30 12.75/100 17/100. Particulars: stereoisomer not certain.

With `CN1CCC23c4c5ccc(O)c4OC2C(=O)CCC3(O)C1C5` (centres undefined) [Oxymorphone], the LC retention time was 5.5 min. Under `CC[N+](C)(CC)CCOC(=O)C(O)(c1ccccc1)C1CCCCC1` (centres undefined) [Oxyphenonium] stands 2.01 min; under `O=C(O)C=Cc1ccc(Cn2ccnc2)cc1` [Ozagrel], 2.99 min. Regarding `COc1ccc(C(=O)O)cc1` [P-Anisic acid], the LC retention time amounted to 1.3 min. Turning to `CCCCCCCCCCCCCCCC(=O)OC(CC(=O)[O-])C[N+](C)(C)C` (centres undefined) [Palmitoylcarnitine cation], the LC retention time was 3.23 min. For `O=C1c2cccc3c2C(CCC3)CN1C1CN2CCC1CC2` (centres undefined) [Palonosetron], the LC retention time worked out at 4.05 min. Under `CC(C)(CO)C(O)C(=O)NCCCO` (centres undefined) [Panthenol] stands 1.9 min; under `COc1ccnc(CS(=O)c2nc3ccc(OC(F)F)cc3[nH]2)c1OC` (centres undefined) [Pantoprazole], 1.21 min.

`CC(C)(CO)C(O)C(=O)NCCC(=O)O` (centres undefined) [Pantothenic acid]: the LC retention time was determined as 3.5 min. To `COc1ccc(Cc2nccc3cc(OC)c(OC)cc23)cc1OC` [Papaverine] belongs 1.54 min. As for `CCOP(=O)(OCC)Oc1ccc([N+](=O)[O-])cc1` [Paraoxon], the LC retention time is 1.02 min. To `CCC(=O)NS(=O)(=O)c1ccc(-c2c(-c3ccccc3)noc2C)cc1` [Parecoxib] belongs 0.98 min; to `Fc1ccc(C2CCNCC2COc2ccc3c(c2)OCO3)cc1` (centres undefined) [Paroxetine], 3.08 min; to `CC1COc2c(C3(N)CC3)c(F)cc3c(=O)c(C(=O)O)cn1c23` (centres undefined) [Pazufloxacin], 2.49 min.

In the case of `CCn1cc(C(=O)O)c(=O)c2cc(F)c(N3CCN(C)CC3)cc21` [Pefloxacin], the LC retention time worked out at 3.65 min. Under `N=C1NC(=O)C(c2ccccc2)O1` (centres undefined) [Pemoline] stands 1.39 min; under `Nc1nc2c(ncn2CCC(CO)CO)c(=O)[nH]1` [Penciclovir], 6.71 min; under `CC(C)=CCN1CCC2(C)c3cc(O)ccc3CC1C2C` (centres undefined) [Pentazocine], 2.65 min.

Turning to `CC(=O)CCCCn1c(=O)c2c(ncn2C)n(C)c1=O` [Pentoxifylline], the LC retention time was 1.09 min.

Turning to `CCCN1CC(CSC)CC2c3cccc4[nH]cc(c34)CC21` (centres undefined) [Pergolide], the LC retention time was found to be 2.41 min.

For `O=C1C2CCCCC2C(=O)N1CCCCN1CCN(c2nsc3ccccc23)CC1` (centres undefined) [Perospirone], the LC retention time worked out at 2.14 min. Under `COc1cc(-c2[o+]c3cc(O)cc(O)c3cc2OC2OC(CO)C(O)C(O)C2O)cc(O)c1O` (centres undefined) [Petunidin-3-glucoside] stands 4.47 min.

For the compound `CC1C(c2ccccc2)OCCN1C` (centres undefined) [Phendimetrazine], the LC retention time was found to be 2.52 min.

Take `NNCCc1ccccc1` [Phenelzine]: the LC retention time is 4.45 min.

As to `CC(=O)OCCc1ccccc1` [Phenethylacetate], the LC retention time was determined as 1.02 min. To `NCCc1ccccc1` [Phenethylamine] belongs 4.87 min.

Take `CC1NCCOC1c1ccccc1` (centres undefined) [Phenmetrazine]: the LC retention time worked out at 4.04 min.

Take `NC(=O)OCCCc1ccccc1` [Phenprobamate]: the LC retention time came out at 1.01 min. Under `CC(C)(N)Cc1ccccc1` [Phentermine] stands 6.23 min; under `O=CCc1ccccc1` [Phenylacetaldehyde], 5.4 min. Under `NC(=O)CCC(NC(=O)Cc1ccccc1)C(=O)O` (centres undefined) [Phenylacetylglutamine] stands 6.03 min; under `O=C(O)CNC(=O)Cc1ccccc1` [Phenylacetylglycine], 2.88 min; under `NCC(O)c1ccccc1` (centres undefined) [Phenylethanolamine], 5.51 min.

With `O=P(O)(O)Oc1ccccc1` [Phenylphosphoric acid], the LC retention time stood at 7.05 min. To `CC(N)C(O)c1ccccc1` (centres undefined) [Phenylpropanolamine] belongs 5.29 min; to `O=C(CCc1ccc(O)cc1)c1c(O)cc(O)cc1O` [Phloretin], 1.5 min. To `O=C(c1ccccc1)c1c(O)cc(O)cc1O` [Phlorobenzophenone] belongs 1.34 min. To `Oc1cc(O)cc(O)c1` [Phloroglucinol] belongs 1.15 min; to `C=C(OP(=O)(O)O)C(=O)O` [Phosphoenolpyruvic acid], 9.05 min. For the compound `O=C(O)CP(=O)(O)O` [Phosphonoacetic acid], the LC retention time worked out at 9.73 min. Regarding `NC(Cc1ccc(OP(=O)(O)O)cc1)C(=O)O` (centres undefined) [Phosphotyrosine], the LC retention time worked out at 9.72 min. To `O=C(O)c1ccccc1C(=O)O` [Phthalic acid] belongs 1.15 min.

For `CNC(=O)Oc1ccc2c(c1)C1(C)CCN(C)C1N2C` (centres undefined) [Physostigmine], the LC retention time was determined as 3.17 min. To `CCCCCCCCCCCCCCC(O)C(O)C(N)CO` (centres undefined) [Phytosphingosine] belongs 5.18 min; to `CC(C)(O)C1C2OC(=O)C1C1(O)CC3OC34C(=O)OC2C14C` (centres undefined) [Picrotin], 1.21 min. As for `O=C1CCC(C(=O)N2CSCC2C(=O)O)N1` (centres undefined) [Pidotimod], the LC retention time came out at 7.3 min. Regarding `CCC1C(=O)OCC1Cc1cncn1C` (centres undefined) [Pilocarpine], the LC retention time was 2.23 min. To `CC(N=C(NC#N)Nc1ccncc1)C(C)(C)C` (centres undefined) [Pinacidil] belongs 1.49 min. To `CCc1ccc(CCOc2ccc(CC3SC(=O)NC3=O)cc2)nc1` (centres undefined) [Pioglitazone] belongs 1.11 min; to `O=C(O)C1CCCCN1` (centres undefined) [Pipecolic acid], 7.83 min. To `O=C(C=CC=Cc1ccc2c(c1)OCO2)N1CCCCC1` [Piperine] belongs 1.1 min; to `Cc1nc2ccccn2c(=O)c1CCN1CCC(C(=O)c2ccc(F)cc2)CC1` [Pirenperone], 3.5 min; to `CN1C(C(=O)Nc2ccccn2)=C(O)c2ccccc2S1(=O)=O` [Piroxicam], 1.02 min. As for `O=C(O)CC(O)CC(O)C=Cc1c(C2CC2)nc2ccccc2c1-c1ccc(F)cc1` (centres undefined) [Pitavastatin], the LC retention time is 1.36 min. Under `CN1CCC(=C2c3ccccc3CCc3sccc32)CC1` [Pizotifen] stands 2.33 min; under `NCc1[nH]cc(CCC(=O)O)c1CC(=O)O` [Porphobilinogen], 7.4 min. Under `CCCNC1CCc2nc(N)sc2C1` (centres undefined) [Pramipexole] stands 5.7 min; under `CCC(C)C(=O)OC1CC(O)C=C2C=CC(C)C(CCC(O)CC(O)CC(=O)O)C21` (centres undefined) [Pravastatin], 1.8 min. Under `O=C1CN=C(c2ccccc2)c2cc(Cl)ccc2N1CC1CC1` [Prazepam] stands 1.07 min. `COc1cc2nc(N3CCN(C(=O)c4ccco4)CC3)nc(N)c2cc1OC` [Prazosin]: the LC retention time was 3.75 min. Under `NC(=O)CCC(NC(=O)C1CCCN1)C(=O)O` (centres undefined) [Pro-Gln] stands 8.75 min.

For `CNNCc1ccc(C(=O)NC(C)C)cc1` [Procarbazine], the LC retention time is 4.61 min.

Regarding `CN1CCN(CCCN2c3ccccc3Sc3ccc(Cl)cc32)CC1` [Prochlorperazine], the LC retention time was 2.56 min. To `CC(=O)C1CCC2C3CCC4=CC(=O)CCC4(C)C3CCC12C` (centres undefined) [Progesterone] belongs 0.97 min. To `O=C(O)C1CC(O)CN1C(=O)C1CCCN1` (centres undefined) [Proline-hydroxyproline] belongs 8.6 min; to `O=C(O)C1CCCN1` (centres undefined) [Proline], 7.83 min. To `CCC(=O)Nc1ccc(Cl)c(Cl)c1` [Propanil] belongs 1.08 min; to `CCC(=O)OC(CC(=O)[O-])C[N+](C)(C)C` (centres undefined) [Propionylcarnitine], 6.41 min. In the case of `CCC(=O)OC(Cc1ccccc1)(c1ccccc1)C(C)CN(C)C` (centres undefined) [Propoxyphene], the LC retention time was found to be 2.01 min.

As to `COc1cc(C=Cc2ccc(O)cc2)cc(OC)c1` [Pterostilbene], the LC retention time was found to be 0.98 min. Under `c1ncc2[nH]cnc2n1` [Purine] stands 2.44 min. To `NCCCCN` [Putrescine] belongs 9.3 min; to `CCOC(=O)COc1cc(-c2nn(C)c(OC(F)F)c2Cl)c(F)cc1Cl` [Pyrafluefen-ethyl], 1.02 min. Under `c1ccncc1` [Pyridine] stands 6.63 min; under `Cc1ncc(COP(=O)(O)O)c(C=O)c1O` [Pyridoxal-5-phosphate], 7.7 min; under `Cc1ncc(CO)c(C=O)c1O` [Pyridoxal], 2.18 min. `Cc1ncc(CO)c(CN)c1O` [Pyridoxamine]: the LC retention time was determined as 8.1 min. As for `Cc1ncc(CO)c(CO)c1O` [Pyridoxine], the LC retention time was determined as 3.78 min. To `O=C1CCC(C(=O)O)N1` (centres undefined) [Pyroglutamic acid] belongs 8.71 min. To `O=C(O)c1ccc[nH]1` [Pyrrole-2-carboxylic acid] belongs 5.66 min; to `CC(=O)OCC1OC(Oc2c(-c3ccc(O)c(O)c3)oc3cc(O)cc(O)c3c2=O)C(O)C(O)C1O` (stereo not drawn) [Quercetin-3-O-beta-glucopyranosyl-6'-acetate], 4.61 min; to `CC1OC(Oc2c(-c3ccc(O)c(O)c3)oc3cc(O)cc(O)c3c2=O)C(O)C(O)C1O` (centres undefined) [Quercetin-3-ramnoside], 4.7 min. For `OCCOCCN1CCN(C2=Nc3ccccc3Sc3ccccc32)CC1` [Quetiapine], the LC retention time came to 2.54 min. Under `O=C(O)c1cccnc1C(=O)O` [Quinolinic acid] stands 2.16 min.
